In the assay the test system is Blattalla germanica. Kind of assay: Test Example 3: filter paper with sucrose bait, death rate of Blattalla germanica. Type of assay: in vivo. To be noted: 500 ppm test solution, 0.7 ml on filter paper; 2 male imagoes; after 6 days. The method, then: A formulation of any one of the present compounds (3) and (4) obtained according to Formulation Example 5 was diluted with water to prepare a test solution having 500 ppm of the active ingredient.
A filter paper having a diameter of 5.5 cm was spread on the bottom of a polyethylene cup having a diameter of 5.5 cm and 0.7 ml of the test solution was added dropwise onto the filter paper. As a bait, 30 mg of sucrose was uniformly placed on the filter paper. Into the polyethylene cup, 2 male imagoes of Blattalla germanica were released and the cup was sealed with a lid. After 6 days, the number of surviving or dead Blattalla germanica was counted and the death rate of the pest was calculated.

`CC(C)OCCS(=O)(=O)C(C#N)CCC(F)(F)C(F)(F)F` (centres unmarked) [(3)] gave a pest death rate of 100%.

In turn, `COC(C)(C)CS(=O)(=O)C(C#N)CCC(F)(F)C(F)(F)F` (centres unmarked) [(4)] registered a pest death rate of 100%.

Source of the values: patent publication US20120184613A1, “SULFUR-CONTAINING COMPOUND AND USE THEREOF” (SUMITOMO CHEMICAL COMPANY, LIMITED, priority 2008, published 2012).
